In experiment [1] the target is T1, HIV protease (Human immunodeficiency virus type 1 group M subtype B, UniProt P04585).
T1 construct: HIV protease was expressed in E. coli; made in house; host or cells: E. coli
Briefly: Recombinant HIV Protease HPLC Assay. The experiment is classed as biochemical. As to conditions: recombinant HIV protease expressed in E. coli; substrate VSFNFPQITL-NH2; pH 5.5; 37°, 30 min; read-out: IC50, concentration of the test compound which causes a 50% inhibition of the HIV-protease. An excerpt: The procedure is based on the capacity of the test compound to inhibit enzymatic cleavage by HIV protease of a decapeptide (the substratel having an amino acid sequence which includes a known HIV protease cleavage site of a HIV polyprotein; see H. G. Krausslich et al., Proc. Natl. Acad. Sci. U.S.A., 86, 807 (1989). Details of this assay together with the results obtained for exemplified compounds of formula 1 are described in the examples hereinafter.
Enzyme: HIV protease was expressed in E. coli {construct pBRT1 prt^+, see W. G. Farmerie et al., Science, 236, 305 (1987)}, according to the following protocol: Unless stated otherwise, all solutions are aqueous solutions.
E. coli cells containing the pBRT1 prt^+ plasmid were used to inoculate a seed culture media composed of Luria-Bertani Broth containing 100 μg/mL of ampicillin. Flasks were incubated at 37° under agitation for 17 h. Production flasks containing sterile M9 broth, supplemented with 100 μg/mL of ampicillin, were inoculated at a level of 1% (v/v) using the seed culture described above. Total volume in each production flask was 500 mL in a 2 L Erlenmeyer flask. Flasks were incubated at 37° under agitation until a cell concentration corresponding to an optical density (λ=540 μm) of 0.6 was reached (no dilution). This time span was routinely 3-4 h. Flasks were then supplemented with 5 mM isopropylthiogalactoside (IPTG, Research Organics, Cleveland, Ohio, USA) and incubation was continued until the cell concentration reached an optical density of 0.2 at 16-fold dilution. Flasks were then supplemented with 1 mM phenylmethylsulfonyl fluoride (PMSF) and rapidly chilled to 4°. The bacterial cells were recovered by centrifugation at 4°. The wet pellet was stored at -70°.
All steps below were perfomed at 4° unless otherwise indicated. Thawed cells were mixed with buffer A {50 mM tris(hydroxymethyl)aminoethane HCl (Tris-HCl, pH 7.4); 0.6 mM ethylenediaminetetraacetic acid (EDTA); 0.375M NaCl, 0.2% Nonidet P-40® (BDH Chemicals Ltd., Poole, UK); 1 mM PMSF}, at a ratio of one part cells to nine parts buffer A. Diatomaceous earth (Celite 545® John Manville, Lompoc, Calif. U.S.A.) was added at a ratio of two parts to one part of wet cell weight. The resulting slurry was homogenized at high speed (ca. 20,000 rpm) on a Waring® industrial blender for 8×15 sec. pulses. Cell debris/Celite® was collected by centrifugation and the resulting pellet was extracted with 4.5 parts of buffer A to one part wet solids using the homogenization procedure described above. Supernatants from both homogenization steps were combined and soluble protein was precipitated by the addition of solid (NH4)2 SO4 to yield a final concentration of 75% saturation. This mixture was agitated for 60 min and the precipitate was recovered by centrifugation. The resulting pellet was suspended in buffer B {50 mM Tris-HCl, pH 8; 30 mM NaCl; 1 mM DL-dithiothreitol (DTT); 1 mM EDTA; mM PMSF; 10% glycerol}, and dialyzed for 18 h against the same buffer.
An aliquot of the dialyzed extract containing 150 mg of the protein was loaded onto a Sephadex A25® anion exchange column (Pharmacia, Uppsala, Sweden) with bed dimensions of 70 cm length and 2.5 cm diameter. The sample was eluted isocratically with buffer B at a linear flow rate of 10 cm/h. Fractions containing HIV protease activity (see below for assay description) were combined, and soluble protein was precipitated by the addition of saturated aqueous (NH4)2 SO4 to yield a total (NH4)2 SO4 concentration of 85% saturation. Precipitated protein was removed by centrifugation and the resulting pellet was dissolved in buffer C {50 mM 2-(4-morpholino)ethanesulfonic acid (MES), pH 5.5; 150 mM NaCl; 1 mM DTT; 1 mM EDTA; 10% glycerol}. This preparation was dialyzed for 18 h against buffer C, and then frozen at -70°. All crude extracts were purified by chromatography in aliquots containing 150 mg of protein in the same manner as described above. […]

Experiment [2] deals with HIV (H9/HTLV-IIIB) in HTLV-I transformed C8166 cells. Briefly: plaque assay, inhibition of HIV (H9/HTLV-IIIB) syncytia formation in C8166 cells. The experiment is classed as cell-based. The following applies: Human immunodeficiency virus 1, fifty times TCID50, 37°, 72 h, read-out: EC50, concentration of the test compound which causes a 50% inhibition of syncytia formation. An excerpt:
Typical of such procedures are those described by S. Harada and N. Yamamoto, Jpn. J. Cancer Res. (Gann), 76, 432 (1985), and S. Harada et al., Science, 229, 563 (1985). An assay based on the latter procedures is described in the examples hereinafter.
The following protocol, used for screening antiviral effects of the compounds of formula 1, is adapted from a plaque assay utilizing HTLV-I transformed cells, previously reported by Harada et al., supra. HTLV-I transformed cells are used because of the rapidity with which HIV will replicate in the cells.
1. The test compound is dissolved in dimethylsulfoxide to a concentration of 5 mg/mL. The resultant solution can be stored at 4° until use.
2. The resultant solution is diluted in RPMI 1640 (Gibco Laboratories, St. Lawrence, Mass., USA) to four times (4×) the final concentration which is to be tested. Once diluted in RPMI 1640, the solution is used in the cell culture assay within 4 h.
3. The 4×solution (50 μL) is added to triplicate wells of a 96 well flat bottomed microtiter plate. RPMI (50 μL) also is added to control wells.
4. C8166 cells (5×10^4) in […] of HEPES-buffered RPMI 1640 (pH=7.2), 10% heat inactivated fetal calf serum (FCS), […] gentamicin (complete media) are added to all wells.
5. Fifty times TCID50 of H9/HTLV-IIIB stock (stored in liquid nitrogen as cell culture supernatant in 50% FCS) in 100 μL of complete media is added to all wells. Infectious titer of virus stocks are as previously determined by end point dilution on C8166 cells. Titer of stocks are stable for 6-12 months when stored at -193°.
6. Microtiter plates are then placed on level shelves of a 37°, 5% CO2 humidified incubator for 72 h.
7. Plates are then removed and centers of syncytia are counted in each well by low power phase contrast light microscopy. […] Control wells should have between 25 and 75 centers of syncytia per well.
8. Percent inhibition of syncytia formation is calculated by the formula: [formula]
The concentration of the test compound which causes a 50% inhibition of syncytia formation, i.e. the EC50, is determined by using the technique of serial dilution of the working solution at step 3 and graphically plotting the observed percent inhibition of syncytia formation against the various concentrations of the test compound.

Turning to `Cc1cc(O[C@@H]2C[C@@H](C(=O)NC(C)(C)C)N(C[C@@H](O)[C@H](Cc3ccccc3)NC(=O)[C@@H](NC(=O)c3ccc4ccccc4n3)C(C)C)C2)nc(C)n1` [Table I Entry 12, N-tert-butyl-1-{2(R)-hydroxy-4-phenyl-3(S)-{{N-(2-quinolinylcarbonyl)valyl}amino}butyl}-4(R)-{(2,6-dimethyl-4-pyrimidinyl)oxy}pyrrolidine-2(S)-carboxamide], the IC50 in experiment [1] was found to be 9.4 nM. In experiment [2], the EC50 was 390 nM.

For the origin of these results see patent US5552405A, “Substituted pyrrolidine derivatives as HIV protease inhibitors” (Bio-Mega/Boehringer Ingelheim Research, Inc., priority 1995, dated 1996).
